Data as given in patent US20250353873A1, “COMPOUNDS AND METHODS FOR MODULATING APOE EXPRESSION” (Ionis Pharmaceuticals, Inc., priority 2024, published 2025).
Strand notation (5' to 3'): a small letter for the sugar, then the base; units joined by * are phosphorothioate-linked, units joined directly phosphodiester-linked; [ ] holds rarer units or linkages, { } end groups; capitals alone tell only the bases. e = 2'-O-(2-methoxyethyl) (MOE); [5mC] = 5-methylcytosine; d = 2'-deoxy (DNA)

Tested on: human APOE RNA
Experiment: Activity in APOE 1549 knock-in mice, single ICV bolus, 2 weeks (Example 7)
Assay type: in vivo
Settings: single ICV bolus of 300 μg, two weeks post treatment, Table 16
Protocol: Modified oligonucleotides described above were tested in APOE knock-in mice.
APOE knock-in mice (model 41549) were obtained from Taconic Biosciences. APOE knock-in mice were divided into groups of 2 mice each. Each mouse received a single intracerebroventricular (ICV) bolus of 300 μg of modified oligonucleotide. A group of 4 mice received a single ICV bolus with PBS as a negative control.
Two weeks post treatment, mice were sacrificed and RNA was extracted from cortical brain tissue and spinal cord for quantitative real-time RT-PCR analysis of RNA expression of APOE using primer probe set RTS3073 (described herein above). APOE RNA levels were normalized to mouse Ppia. Mouse Ppia was amplified using primer probe set m_cyclo24 (forward sequence TCGCCGCTTGCTGCA, designated herein as SEQ ID NO: 16; reverse sequence ATCGGCCGTGATGTCGA, designated herein as SEQ ID NO: 17; probe sequence […], designated herein as SEQ ID NO: 18). Results are presented as percent human APOE RNA relative to the amount of human APOE RNA in PBS treated animals, (% control). Each experiment is identified in separate tables below.

| Substance | APOE RNA (% control) Cortex [% control] | APOE RNA (% control) Spinal Cord [% control] |
| --- | --- | --- |
| 1601944: 6-10-4 MOE gapmer CTGGTCTTCTCTTATCTCCC, linkages sooooossssssssssoss (antisense e[5mC]*eTeGeGeTe[5mC]dT*dT*d[5mC]*dT*d[5mC]*dT*dT*dA*dT*d[5mC]*eTe[5mC]*e[5mC]*e[5mC]) [compound 1601944] | 109 | 95 |
| 1601942: 6-10-4 MOE gapmer CCGTGTTCCATTTATGAGCT, linkages sooooossssssssssoss (antisense e[5mC]*e[5mC]eGeTeGeTdT*d[5mC]*d[5mC]*dA*dT*dT*dT*dA*dT*dG*eAeG*e[5mC]*eT) [compound 1601942] | 84 | 91 |
| 1601957: 6-10-4 MOE gapmer TCCTCATTTTAAAGTTCTCC, linkages sooooossssssssssoss (antisense eT*e[5mC]e[5mC]eTe[5mC]eAdT*dT*dT*dT*dA*dA*dA*dG*dT*dT*e[5mC]eT*e[5mC]*e[5mC]) [compound 1601957] | 101 | 90 |
| 1601948: 6-10-4 MOE gapmer GTTCAAATTCCATCCCCCCA, linkages sooooossssssssssoss (antisense eG*eTeTe[5mC]eAeAdA*dT*dT*d[5mC]*d[5mC]*dA*dT*d[5mC]*d[5mC]*d[5mC]*e[5mC]e[5mC]*e[5mC]*eA) [compound 1601948] | 112 | 105 |
| 1601955: 6-10-4 MOE gapmer GCTAATTCAGTCCTCATTTT, linkages sooooossssssssssoss (antisense eG*e[5mC]eTeAeAeTdT*d[5mC]*dA*dG*dT*d[5mC]*d[5mC]*dT*d[5mC]*dA*eTeT*eT*eT) [compound 1601955] | 98 | 111 |
| 1601958: 6-10-4 MOE gapmer CTTCACATTCTAAGCTCCAA, linkages sooooossssssssssoss (antisense e[5mC]*eTeTe[5mC]eAe[5mC]dA*dT*dT*d[5mC]*dT*dA*dA*dG*d[5mC]*dT*e[5mC]e[5mC]*eA*eA) [compound 1601958] | 109 | 102 |
